A short description of data set [1]: Toxicity against BALB/c mouse xenografted with mouse 4T1 cells assessed as pathological changes in liver at 1 mg/kg, iv qd for 14 days by Hematoxylin-Eosin staining based analysis. It counts as organism-based. The settings on record: in vivo, 336 h, time 14 day.
A short description of data set [2]: Toxicity against BALB/c mouse xenografted with mouse 4T1 cells assessed as heightened inflammatory response in lung at 1 mg/kg, iv qd for 14 days by Hematoxylin-Eosin staining based analysis. It counts as organism-based. To be noted: in vivo, 336 h, time 14 day.
Data set [3] can be described thus: Toxicity against BALB/c mouse xenografted with mouse 4T1 cells assessed as pathological changes in spleen at 1 mg/kg, iv qd for 14 days by Hematoxylin-Eosin staining based analysis. It counts as organism-based. To be noted: in vivo, 336 h, time 14 day.
Data set [4] can be described thus: Stability of the compound in mouse plasma at 5 uM and measured at 37 degC and for up to 12 hrs by HPLC analysis. The format is ADME, cell-free. To be noted: for remaining at 12 h, 5 µM: read-out: Stability.
Data set [5] has as its system Mus musculus. The data set can be described thus: In vivo transition from anti-inflammatory to pro-inflammatory phenotypes in BALB/c mouse xenografted with mouse 4T1 cells assessed as decrease in proportion of Ly6C+ and Ly6G+ cells within CD45+ population at 1 mg/kg, iv qd for 14 days by flow cytometry. The format is functional, organism-based. To be noted: time 14.0 day. (In general: In flow cytometry, cells or beads pass a laser one at a time.)

In data set [6] the test system is Mus musculus. The data set can be described thus: In vivo transition from anti-inflammatory to pro-inflammatory phenotypes in BALB/c mouse xenografted with mouse 4T1 cells assessed as CD4+ cells population at 1 mg/kg, iv qd for 14 days by flow cytometry. It counts as functional, organism-based. The settings on record: time 14.0 day.
Data set [7] concerns Mus musculus. The data set can be described thus: In vivo transition from anti-inflammatory to pro-inflammatory phenotypes in BALB/c mouse xenografted with mouse 4T1 cells assessed as upregulation in proportion of CD8+ cells at 1 mg/kg, iv qd for 14 days by flow cytometry. It counts as functional, organism-based. The settings on record: time 14.0 day.
The subject of data set [8] is HUVEC. The data set can be described thus: Cytotoxicity against human HUVEC cells assessed as reduction in cell viability incubated for 24 hrs by CCK-8 assay. The format is toxicity, cell-based. (In general: Tetrazolium dyes change colour on reduction, which living cells bring about.)
Data set [9] is described as follows: Toxicity against BALB/c mouse xenografted with mouse 4T1 cells assessed as effect on body weight at 1 mg/kg, iv qd for 14 days and measured every day. The format is organism-based. To be noted: in vivo, 336 h, time 14 day.
A short description of data set [10]: Toxicity against BALB/c mouse xenografted with mouse 4T1 cells assessed as pathological changes in kidney at 1 mg/kg, iv qd for 14 days by Hematoxylin-Eosin staining based analysis. It counts as organism-based. To be noted: in vivo, 336 h, time 14 day.
Data set [11] can be described thus: Cytotoxicity against mouse BMDM cells assessed as reduction in cell viability incubated for 24 hrs by CCK-8 assay. The format is toxicity, cell-based.
Data set [12] relates to 4T1. The data set can be described thus: Cytotoxicity against mouse 4T1 cells assessed as reduction in cell viability incubated for 24 hrs by CCK-8 assay. The format is toxicity, cell-based. To be noted: 4t1, 24 h.
Data set [13] can be described thus: Toxicity against BALB/c mouse xenografted with mouse 4T1 cells assessed as pathological changes in heart at 1 mg/kg, iv qd for 14 days by Hematoxylin-Eosin staining based analysis. It counts as organism-based. The settings on record: in vivo, 336 h, time 14 day.
The subject of data set [14] is 4T1. The data set can be described thus: Antitumor activity against mouse 4T1 cells xenografted in BALB/c mouse assessed as inhibition of tumor growth at 1 mg/kg, iv qd for 14 days and measured every day by digital caliper analysis. The format is functional, organism-based. To be noted: time 14.0 day.
The nature of data set [15]: Prodrug release assessed as IMDQ formation in presence of 10 mM GSH and measured after 1 to 8 hrs by HPLC analysis. The format is ADME. To be noted: time 1-8 hrs.
The nature of data set [16]: Stability of the compound in PBS measured at 4 degC and for 15 days. It counts as physicochemical. The settings on record: time 15 day, read-out: Stability.
Data set [17] has as its system BMDM. The data set can be described thus: Induction of macrophage repolarization in FR-beta expressing IL-4 differentiated M2 phenotype mouse BMDM cells assessed as reprogramming to M1 phenotype by measuring upregulation of TLR7 expression at 10 nM incubated for 24 hrs by western blot analysis. The format is functional, cell-based. (In western blotting, separated proteins are transferred to a membrane and probed.)

The subject of data set [18] is BMDM. The data set can be described thus: Induction of macrophage repolarization in FR-beta expressing IL-4 differentiated M2 phenotype mouse BMDM cells assessed as reprogramming to M1 phenotype by measuring downregulation of CD206 expression at 10 nM incubated for 24 hrs by western blot analysis. The format is functional, cell-based.
For data set [19], the system named is BMDM. The data set can be described thus: Induction of macrophage repolarization in FR-beta expressing IL-4 differentiated M2 phenotype mouse BMDM cells assessed as reprogramming to M1 phenotype by measuring upregulation of iNOS expression at 10 nM incubated for 24 hrs by western blot analysis. It counts as functional, cell-based.
Data set [20] relates to BMDM. The data set can be described thus: Induction of macrophage repolarization in FR-beta expressing IL-4 differentiated M2 phenotype mouse BMDM cells assessed as reprogramming to M1 phenotype by measuring downregulation of Arg1 mRNA expression at 10 nM incubated for 24 hrs by RT-qPCR analysis. The format is functional, cell-based.
Data set [21] has as its system BMDM. The data set can be described thus: Induction of macrophage repolarization in FR-beta expressing IL-4 differentiated M2 phenotype mouse BMDM cells assessed as reprogramming to M1 phenotype by measuring downregulation of CD206 mRNA expression at 10 nM incubated for 24 hrs by RT-qPCR analysis. The format is functional, cell-based.
Data set [22] concerns BMDM. The data set can be described thus: Induction of macrophage repolarization in FR-beta expressing IL-4 differentiated M2 phenotype mouse BMDM cells assessed as reprogramming to M1 phenotype by measuring upregulation of IL-6 mRNA expression at 10 nM incubated for 24 hrs by RT-qPCR analysis. The format is functional, cell-based.
Data set [23] concerns BMDM. The data set can be described thus: Induction of macrophage repolarization in FR-beta expressing IL-4 differentiated M2 phenotype mouse BMDM cells assessed as reprogramming to M1 phenotype by measuring upregulation of IL-6 level at 10 nM incubated for 24 hrs by ELISA. It counts as functional, cell-based.
For data set [24], the system named is BMDM. The data set can be described thus: Induction of macrophage repolarization in FR-beta expressing IL-4 differentiated M2 phenotype mouse BMDM cells assessed as reprogramming to M1 phenotype by measuring downregulation of IL-10 mRNA expression at 10 nM incubated for 24 hrs by RT-qPCR analysis. The format is functional, cell-based.
Data set [25] concerns BMDM. The data set can be described thus: Induction of macrophage repolarization in FR-beta expressing IL-4 differentiated M2 phenotype mouse BMDM cells assessed as reprogramming to M1 phenotype by measuring upregulation of MyD88 expression at 10 nM incubated for 24 hrs by western blot analysis. The format is functional, cell-based.
Data set [26] concerns BMDM. The data set can be described thus: Induction of macrophage repolarization in FR-beta expressing IL-4 differentiated M2 phenotype mouse BMDM cells assessed as reprogramming to M1 phenotype by measuring downregulation of Arg1 expression at 10 nM incubated for 24 hrs by western blot analysis. The format is functional, cell-based.
Data set [27] deals with BMDM. The data set can be described thus: Induction of macrophage repolarization in FR-beta expressing IL-4 differentiated M2 phenotype mouse BMDM cells assessed as reprogramming to M1 phenotype by measuring upregulation of iNOS mRNA expression at 10 nM incubated for 24 hrs by RT-qPCR analysis. It counts as functional, cell-based.
Data set [28] relates to BMDM. The data set can be described thus: Induction of macrophage repolarization in FR-beta expressing IL-4 differentiated M2 phenotype mouse BMDM cells assessed as reprogramming to M1 phenotype by measuring TNF-alpha level at 10 nM incubated for 24 hrs by ELISA. The format is functional, cell-based.
Data set [29] concerns BMDM. The data set can be described thus: Induction of macrophage repolarization in FR-beta expressing IL-4 differentiated M2 phenotype mouse BMDM cells assessed as reprogramming to M1 phenotype by measuring downregulation of IL-10 level at 10 nM incubated for 24 hrs by ELISA. It counts as functional, cell-based.
Data set [30] has as its system BMDM. The data set can be described thus: Induction of macrophage repolarization in FR-beta expressing IL-4 differentiated M2 phenotype mouse BMDM cells assessed as reprogramming to M1 phenotype by measuring TNF-alpha mRNA expression at 10 nM incubated for 24 hrs by RT-qPCR analysis. It counts as functional, cell-based.

The source made the active and inactive calls. No cut-off for these calls is given here.

Take `CCCCc1nc2c(N)nc3ccccc3c2n1Cc1ccc(CNC(=O)OCCSSC[C@H](NC(=O)CC[C@H](NC(=O)c2ccc(CCCCc3cc4c(=O)[nH]c(N)nc4[nH]3)s2)C(=O)O)C(=O)O)cc1`: the Activity result in data set [1], in data set [2], in data set [3], in data set [8], in data set [9] and in data set [10] was “Non-toxic” each time. Moreover, the Activity entry in [11], in data set [12] and in [13] was “Non-toxic” in each case. For the same compound, in [4], the remaining at 12 h, 5 µM was found to be 95%. Also, the outcome in [5], in data set [7] and in data set [14] was Active. In data set [6], the result was inactive. Besides, in data set [15], the Drug metabolism result is given as “metabolite_detected”. In [16], the remaining at 360 h was more than 95%.

In the case of `Nc1nc2[nH]c(CCCCc3ccc(C(=O)N[C@@H](CCC(=O)N[C@@H](CS)C(=O)O)C(=O)O)cc3)cc2c(=O)[nH]1`, the outcome in data set [17], in [18] and in data set [19] was inactive. Besides, the Activity result in data set [12] is on record as “Non-toxic”.

For `Nc1nc(O)c2nc(CNc3ccc(C(=O)N[C@@H](CCC(=O)N[C@@H](CS)C(=O)O)C(=O)O)cc3)cnc2n1`, the Activity entry in data set [12] was “Non-toxic”.

As to `CCCCc1nc2c(N)nc3ccccc3c2n1Cc1ccc(CNC(=O)OCCSSC[C@H](NC(=O)CC[C@H](NC(=O)CNC(=O)Cc2cc3c(=O)[nH]c(N)nc3[nH]2)C(=O)O)C(=O)O)cc1`, the outcome in [20], in data set [21], in data set [22], in [5], in [23] and in [18] was Active. The result in data set [7], in [24], in [25], in data set [26], in data set [27] and in data set [19] was Active. Further, the result in data set [14] and in [29] was Active. Besides, the Activity result in data set [1], in data set [2], in [3], in data set [8], in data set [9] and in data set [10] was “Non-toxic” each time. Besides, the Activity result in [11], in data set [12] and in [13] was “Non-toxic” each time. Also, the remaining at 12 h, 5 µM in data set [4] is 95%. Also, the outcome in data set [6], in data set [28] and in [30] was inactive. In [15], the Drug metabolism entry is given as “metabolite_detected”. For the same compound, the remaining at 360 h in data set [16] is more than 95%.

For the compound `CCCCc1nc2c(N)nc3ccccc3c2n1Cc1ccc(CNC(=O)OCCSSC[C@H](NC(=O)CC[C@H](NC(=O)c2ccc(NCc3cnc4nc(N)[nH]c(=O)c4n3)cc2)C(=O)O)C(=O)O)cc1`, the Activity entry in data set [20] was “Active; Less Effective Than Fgt-2,4 Observed”; in [1], “Non-toxic”; in data set [21], “Active; Less Effective Than Fgt-2,4 Observed”; in [2] it was “Non-toxic”; in [3], “Non-toxic”; in data set [18], “Active; Less Effective Than Fgt-2,4 Observed”. Also, the Activity entry in [26] is given as “Active; Less Effective Than Fgt-2,4 Observed”; in data set [27] it was “Active; Less Effective Than Fgt-2,4 Observed”; in data set [8], “Non-toxic”; in data set [9], “Non-toxic”; in data set [10], “Non-toxic”; in data set [11] it was “Non-toxic”. Also, the Activity entry in data set [19] is given as “Active; Less Effective Than Fgt-2,4 Observed”; in data set [12], “Non-toxic”; in [13], “Non-toxic”. For the same compound, the Stability entry in [4] (12 h, 5 µM) was “Unstable”. Besides, the result in [5], in [7] and in [14] was Active. Also, the result in data set [6] was inactive. In data set [15], the Drug metabolism entry is listed as “metabolite_detected”. Further, the remaining at 360 h in data set [16] was less than 95%.

With `Nc1nc2[nH]c(CCCCc3ccc(C(=O)N[C@@H](CCC(=O)N[C@@H](CS)C(=O)O)C(=O)O)s3)cc2c(=O)[nH]1`, the Activity entry in [12] is “Non-toxic”.

Consider `Nc1nc2[nH]c(CC(=O)NCC(=O)N[C@@H](CCC(=O)N[C@@H](CS)C(=O)O)C(=O)O)cc2c(=O)[nH]1`, for which the Activity result in [12] is “Non-toxic”.

For the origin of these results see ChEMBL document CHEMBL6134867, “Design and Synthesis of FR-β Targeting Chimeric Molecules for Reprogramming Tumor-Associated Macrophages Using 6-Substituted Pyrrolo[2,3-d]pyrimidines as Targeting Ligands” (J Med Chem, 2025).
